Laboratory results reported in US11866720B2, “Transgenic or non-transgenic plants with mutated protoporphyrinogen oxidase having increased tolerance to herbicides” (priority 2013, dated 2024).
Where “and” joins values, the source holds several entries; their conditions need not be identical. Equal entries are not always repeated.

How the values were obtained:
[1] = tested on: transgenic Arabidopsis thaliana plants expressing wildtype or mutated PPO; test: Germination / growth inhibition assay of transgenic Arabidopsis T2 seeds in 48-well plates; settings: growth inhibition seven to ten days after seeding
[2] = tested on: transgenic soybean expressing mutated PPO; test: Soybean T0 cuttings, greenhouse spray test (injury score 0-9, 1 week after treatment); format: in vivo, Glycine max; settings: for Injury score from 0-9: soybean T0 cuttings, 1 week after treatment
Text: For testing of T0 plants, cuttings can be used. In the case of soybean plants, an optimal shoot for cutting is about 7.5 to 10 cm tall, with at least two nodes present. Each cutting is taken from the original transformant (mother plant) and dipped into rooting hormone powder (indole-3-butyric acid, IBA). The cutting is then placed in oasis wedges inside a bio-dome. Wild type cuttings are also taken simultaneously to serve as controls. The cuttings are kept in the bio-dome for 5-7 days and then transplanted to pots and then acclimated in the growth chamber for two more days. Subsequently, the cuttings are transferred to the greenhouse, acclimated for approximately 4 days, and then subjected to spray tests as indicated. Depending on the species, the plants are kept at 10-25° C. or 20-35° C. The test period extends over 3 weeks. During this time, the plants are tended and their response to the individual treatments is evaluated. Herbicide injury evaluations are taken at 2 and 3 weeks after treatment. Plant injury is rated on a scale of 0% to 100%, 0% being no injury and 100% being complete death.
Soybean cv Jake was transformed as previously described by Siminszky et al., Phytochem Rev. 5:445-458 (2006). After regeneration, transformants were transplanted to soil in small pots, placed in growth chambers (16 hr day/8 hr night; 25° C. day/23° C. night; 65% relative humidity; 130-150 microE m-2 s-1) and subsequently tested for the presence of the T-DNA via Taqman analysis. After a few weeks, healthy, transgenic positive, single copy events were transplanted to larger pots and allowed to grow in the growth chamber. An optimal shoot for cutting was about 3-4 inches tall, with at least two nodes present. Each cutting was taken from the original transformant (mother plant) and dipped into rooting hormone powder (indole-3-butyric acid, IBA). The cutting was then placed in oasis wedges inside a bio-dome. The mother plant was taken to maturity in the greenhouse and harvested for seed. Wild type cuttings were also taken simultaneously to serve as negative controls. The cuttings were kept in the bio-dome for 5-7 days and then transplanted to 3 inch pots and then acclimated in the growth chamber for two more days. […] Herbicide injury evaluations were taken at 2, 7, 14 and 21 days after treatment. Results are shown in Tables 11a-11i, and FIGS. 5, 6, and 7.
The following gives a definition of the injury scores measured above: […]

[3] = tested on: transgenic soybean expressing mutated PPO; test: Soybean segregating T1 individuals, greenhouse spray test (injury 0-9); format: in vivo, Glycine max; settings: benzoxazin 100 g ai/ha, 1 week after treatment
[4] = tested on: transgenic Arabidopsis thaliana plants expressing wildtype or mutated PPO; test: Greenhouse tolerance test of transgenic T1 Arabidopsis plants (phytotox / injury rating 0-100); format: in vivo; settings: for Plant growth injury, scale 0-100, 100 is 100% damage: +1% MSO

C#CCN1C(=O)C(F)(F)Oc2cc(F)c(-n3c(=O)n(C)c(=S)n(C)c3=O)cc21
Relative tolerance rate as compared to a non-transgenic Arabidopsis plant (non-transgenic = 1.0) ([1]; transgenic Arabidopsis AMATU_PPO2_F420I): 367
Relative tolerance rate as compared to a non-transgenic Arabidopsis plant (non-transgenic = 1.0) ([1]; transgenic Arabidopsis AMATU_PPO2_F420L): 253
Relative tolerance rate as compared to a non-transgenic Arabidopsis plant (non-transgenic = 1.0) ([1]; transgenic Arabidopsis AMATU_PPO2_F420M): 102
Relative tolerance rate as compared to a non-transgenic Arabidopsis plant (non-transgenic = 1.0) ([1]; transgenic Arabidopsis AMATU_PPO2_R128A_F420I): 333
Relative tolerance rate as compared to a non-transgenic Arabidopsis plant (non-transgenic = 1.0) ([1]; transgenic Arabidopsis AMATU_PPO2_R128A_F420L): 333
Relative tolerance rate as compared to a non-transgenic Arabidopsis plant (non-transgenic = 1.0) ([1]; transgenic Arabidopsis AMATU_PPO2_R128A_F420M): 204
Relative tolerance rate as compared to a non-transgenic Arabidopsis plant (non-transgenic = 1.0) ([1]; transgenic Arabidopsis AMATU_PPO2_R128L): 23
Relative tolerance rate as compared to a non-transgenic Arabidopsis plant (non-transgenic = 1.0) ([1]; transgenic Arabidopsis AMATU_PPO2_dG210): 33
Relative tolerance rate as compared to a non-transgenic Arabidopsis plant (non-transgenic = 1.0) ([1]; transgenic Arabidopsis AMATU_PPO2_dG210_R128L): 153
Relative tolerance rate as compared to a non-transgenic Arabidopsis plant (non-transgenic = 1.0) ([1]; transgenic Arabidopsis AMATU_PPO2_wt): 13
injury score 1 WAT ([2]; Soy T0 AmtuPPX2L_R128L_F420V event 1, greenhouse, 25 g ai/ha): 3
injury score 1 WAT ([2]; Soy T0 AmtuPPX2L_R128L_F420V event 1, greenhouse, 50 g ai/ha): 4
injury score 1 WAT ([2]; Soy T0 AmtuPPX2L_R128L_F420V event 1, greenhouse, 75 g ai/ha): 5
injury score 1 WAT ([2]; Soy T0 AmtuPPX2L_R128L_F420V event 2, greenhouse, 25 g ai/ha): 0
injury score 1 WAT ([2]; Soy T0 AmtuPPX2L_R128L_F420V event 2, greenhouse, 50 g ai/ha): 1
injury score 1 WAT ([2]; Soy T0 AmtuPPX2L_R128L_F420V event 2, greenhouse, 75 g ai/ha): 3
Injury score from 0-9 ([2]; AmtuPPX2L (10 events), benzoxazin 12.5 + 1% MSO): 3
Injury score from 0-9 ([2]; AmtuPPX2L (10 events), benzoxazin 25 + 1% MSO): 5
Injury score from 0-9 ([2]; AmtuPPX2L_F420L (7 events), benzoxazin 12.5 + 1% MSO): 2
Injury score from 0-9 ([2]; AmtuPPX2L_F420L (7 events), benzoxazin 25 + 1% MSO): 1
Injury score from 0-9 ([2]; AmtuPPX2L_F420M (8 events), benzoxazin 25 + 1% MSO): 1
Injury score from 0-9 ([2]; AmtuPPX2L_F420M (8 events), benzoxazin 50 + 1% MSO): 2
Injury score from 0-9 ([2]; AmtuPPX2L_R128A_F420I (9 events), benzoxazin 25 + 1% MSO): 2
Injury score from 0-9 ([2]; AmtuPPX2L_R128A_F420I (9 events), benzoxazin 50 + 1% MSO): 2
Injury score from 0-9 ([2]; AmtuPPX2L_R128A_F420I (9 events), benzoxazin 75 + 1% MSO): 3
Injury score from 0-9 ([2]; AmtuPPX2L_R128A_F420L (6 events), benzoxazin 25 + 1% MSO): 0
Injury score from 0-9 ([2]; AmtuPPX2L_R128A_F420M (7 events), benzoxazin 25 + 1% MSO): 3
Injury score from 0-9 ([2]; AmtuPPX2L_R128A_F420M (7 events), benzoxazin 50 + 1% MSO): 3
Injury score from 0-9 ([2]; AmtuPPX2L_R128A_F420M (7 events), benzoxazin 75 + 1% MSO): 4
Injury score from 0-9 ([2]; AmtuPPX2L_R128A_F420V (14 events), benzoxazin 25 + 1% MSO): 2
Injury score from 0-9 ([2]; AmtuPPX2L_R128A_F420V (14 events), benzoxazin 50 + 1% MSO): 2
Injury score from 0-9 ([2]; AmtuPPX2L_R128A_F420V (14 events), benzoxazin 75 + 1% MSO): 3
Injury score from 0-9 ([2]; AmtuPPX2L_dG210 (13 events), benzoxazin 25 + 1% MSO): 1
Injury score from 0-9 ([2]; AmtuPPX2L_dG210 (13 events), benzoxazin 50 + 1% MSO): 3
Injury score from 0-9 ([2]; AmtuPPX2L_dG210_R128L (12 events), benzoxazin 25 + 1% MSO): 2
Injury score from 0-9 ([2]; AmtuPPX2L_dG210_R128L (12 events), benzoxazin 50 + 1% MSO): 3
Injury score from 0-9 ([2]; NitabPPX2 (13 events), benzoxazin 12.5 + 1% MSO): 6
Injury score from 0-9 ([2]; NitabPPX2 (13 events), benzoxazin 25 + 1% MSO): 6
Injury score from 0-9 ([2]; NitabPPX2_R98A_F392V (9 events), benzoxazin 25 + 1% MSO): 0
Injury score from 0-9 ([2]; NitabPPX2_R98A_F392V (9 events), benzoxazin 50 + 1% MSO): 0
Injury score from 0-9 ([2]; wild type Jake variety, benzoxazin 12.5 + 1% MSO): 7
Injury score from 0-9 ([2]; wild type Jake variety, benzoxazin 25 + 1% MSO): 8
Injury score from 0-9 ([2]; wild type Jake variety, benzoxazin 50 + 1% MSO): 9
Injury score from 0-9 ([2]; wild type Jake variety, benzoxazin 75 + 1% MSO): 9
injury (0-9 point scale) ([3]; SDS10791 AmtuPPX2L R128A_F420I): 3 (2×) and 2 and 4 (3×) and 9 and 5
injury (0-9 point scale) ([3]; SDS-10642 AmtuPPX2L R128A_F420L): 6 and 5 (5×) and 9 and 4
injury (0-9 point scale) ([3]; SDS-10648 AmtuPPX2L R128A_F420I): 4 (3×) and 9 and 5 (4×)
injury (0-9 point scale) ([3]; SDS-10652 AmtuPPX2L L397D_F420V): 9 (2×) and 4 (6×)
injury (0-9 point scale) ([3]; SDS-10787 AmtuPPX2L R128A_F420L): 4 and 5 (3×) and 9 (2×) and 6 (2×)
injury (0-9 point scale) ([3]; SDS-10985 AmtuPPX2L R128A_F420M): 9 (5×) and 6 (3×)
injury (0-9 point scale) ([3]; SDS-10990 AmtuPPX2L R128A_F420M): 9 (3×) and 7 (2×) and 6 (3×)
injury (0-9 point scale) ([3]; SDS-11034 AmtuPPX2L R128A_F420V): 4 (3×) and 3 (3×) and 2 (2×)
injury (0-9 point scale) ([3]; wild type): 9 (7×) and 8
Injury Rating 0-100% (0 = no injury, 100 = total control) ([4]; Line 2, F420V, SEQ_ID 2 & 4, 19 DAT, 150 g/Ha + 1% MSO): 90% and 85% and 45%
Plant growth injury, scale 0-100, 100 is 100% damage ([4]; non-transgenic Arabidopsis, POST, 7 DAT, 75 g ai/ha): 98%
Plant growth injury, scale 0-100, 100 is 100% damage ([4]; non-transgenic Arabidopsis, POST, 7 DAT, 150 g ai/ha): 98%
Plant growth injury, scale 0-100, 100 is 100% damage ([4]; non-transgenic Arabidopsis, POST, 7 DAT, 300 g ai/ha): 98%
Plant growth injury, scale 0-100, 100 is 100% damage ([4]; Ø F420V 1, POST, 7 DAT, 75 g ai/ha): 17%
Plant growth injury, scale 0-100, 100 is 100% damage ([4]; Ø F420V 1, POST, 7 DAT, 150 g ai/ha): 28%
Plant growth injury, scale 0-100, 100 is 100% damage ([4]; Ø F420V 1, POST, 7 DAT, 300 g ai/ha): 36%
Plant growth injury, scale 0-100, 100 is 100% damage ([4]; Ø F420V 1 to 3, 75 g ai/ha): 11%
Plant growth injury, scale 0-100, 100 is 100% damage ([4]; Ø F420V 1 to 3, 150 g ai/ha): 17%
Plant growth injury, scale 0-100, 100 is 100% damage ([4]; Ø F420V 1 to 3, 300 g ai/ha): 26%
Plant growth injury, scale 0-100, 100 is 100% damage ([4]; Ø F420V 2, POST, 7 DAT, 75 g ai/ha): 9%
Plant growth injury, scale 0-100, 100 is 100% damage ([4]; Ø F420V 2, POST, 7 DAT, 150 g ai/ha): 11%
Plant growth injury, scale 0-100, 100 is 100% damage ([4]; Ø F420V 2, POST, 7 DAT, 300 g ai/ha): 22%
Plant growth injury, scale 0-100, 100 is 100% damage ([4]; Ø F420V 3, POST, 7 DAT, 75 g ai/ha): 8%
Plant growth injury, scale 0-100, 100 is 100% damage ([4]; Ø F420V 3, POST, 7 DAT, 150 g ai/ha): 12%
Plant growth injury, scale 0-100, 100 is 100% damage ([4]; Ø F420V 3, POST, 7 DAT, 300 g ai/ha): 22%
Plant growth injury, scale 0-100, 100 is 100% damage ([4]; Ø R128A, F420V 1, POST, 7 DAT, 75 g ai/ha): 18%
Plant growth injury, scale 0-100, 100 is 100% damage ([4]; Ø R128A, F420V 1, POST, 7 DAT, 150 g ai/ha): 23%
Plant growth injury, scale 0-100, 100 is 100% damage ([4]; Ø R128A, F420V 1, POST, 7 DAT, 300 g ai/ha): 26%
Plant growth injury, scale 0-100, 100 is 100% damage ([4]; Ø R128A, F420V 1 to 3, 75 g ai/ha): 18%
Plant growth injury, scale 0-100, 100 is 100% damage ([4]; Ø R128A, F420V 1 to 3, 150 g ai/ha): 24%
Plant growth injury, scale 0-100, 100 is 100% damage ([4]; Ø R128A, F420V 1 to 3, 300 g ai/ha): 32%
Plant growth injury, scale 0-100, 100 is 100% damage ([4]; Ø R128A, F420V 2, POST, 7 DAT, 75 g ai/ha): 24%
Plant growth injury, scale 0-100, 100 is 100% damage ([4]; Ø R128A, F420V 2, POST, 7 DAT, 150 g ai/ha): 20%
Plant growth injury, scale 0-100, 100 is 100% damage ([4]; Ø R128A, F420V 2, POST, 7 DAT, 300 g ai/ha): 33%
Plant growth injury, scale 0-100, 100 is 100% damage ([4]; Ø R128A, F420V 3, POST, 7 DAT, 75 g ai/ha): 11%
Plant growth injury, scale 0-100, 100 is 100% damage ([4]; Ø R128A, F420V 3, POST, 7 DAT, 150 g ai/ha): 30%
Plant growth injury, scale 0-100, 100 is 100% damage ([4]; Ø R128A, F420V 3, POST, 7 DAT, 300 g ai/ha): 36%
Plant growth injury, scale 0-100, 100 is 100% damage ([4]; Ø non-transgenic Arabidopsis, POST, 7 DAT, 75 g ai/ha): 98%
Plant growth injury, scale 0-100, 100 is 100% damage ([4]; Ø non-transgenic Arabidopsis, POST, 7 DAT, 150 g ai/ha): 98%
Plant growth injury, scale 0-100, 100 is 100% damage ([4]; Ø non-transgenic Arabidopsis, POST, 7 DAT, 300 g ai/ha): 98%
